In brackets after ≈: the same amount, converted by molar mass. Where two headings read alike, the source gives them in different places.

The subject of one assay is Bacillus subtilis 168CA. Description: Minimum Inhibitory Concentration (MIC) testing, broth microdilution, Bacillus subtilis. It is filed as cell-based. The conditions noted are these: for MIC: read-out: Bacillus subtilis MICs Activity. How it is done: (§1) Compounds of this invention were tested for antimicrobial activity by susceptibility testing in liquid media. MICs for compounds against each strain were determined by a broth microdilution method according to the National Committee for Clinical Laboratory Standards (NCCLS) guidelines. (NCCLS. 2000. Methods for dilution antimicrobial susceptibility tests for bacteria that grow aerobically—fifth edition. Approved standard M7-A5. NCCLS, Wayne, Pa.)
(§2) Briefly, test compounds are prepared in 100 μl of 1.6% DMSO solution in multiwell plates. Several bacterial colonies from a freshly streaked plate are transferred to an appropriate rich broth, such as Mueller Hinton. The cell suspension is adjusted to an optical density of 0.09 and further diluted 1:100 with warm 2× broth. This cell suspension is dispensed into the wells containing compound solution so that the final volume is 200 μl. The plates are incubated overnight (16-20 hours) at 37° C. and turbidity is scored by eye and quantified spectrophotometrically. The MIC is defined as the lowest concentration inhibiting visible growth.
Activities were scored as ‘A’ if the MIC was ≦8 micrograms/ml, ‘B’ if the MIC was 16 to 64 micrograms/ml and ‘C’ if the MIC was greater than 64 micrograms/ml.

Assay [1] concerns Staphylococcus aureus ATCC29213. The assay can be described thus: Minimum Inhibitory Concentration (MIC) testing, broth microdilution, Staphylococcus aureus. It is filed as cell-based. The conditions noted are these: Staphylococcus aureus ATCC29213; for MIC: read-out: Staphylococcus aureus MICs Activity. How it is done: as §1, §2
Some of the compounds of the Examples were also tested for activity against the pathogenic organism Staphylococcus aureus ATCC29213. […] Activities were again scored as ‘A’ if the MIC was ≦8 micrograms/ml, ‘B’ if the MIC was 16 to 64 micrograms/ml and ‘C’ if the MIC was greater than 64 micrograms/ml.

For the compound `C=CCc1sc(COc2ccc(F)c(C(N)=O)c2F)nc1-c1ccc(OC)cc1` [Example 120, 3-[5-Allyl-4-(4-methoxy-phenyl)-thiazol-2-ylmethoxy]-2,6-difluoro-benzamide], the MIC (in the assay on Bacillus subtilis 168CA (Bacillus subtilis 168CA); in assay [1]) was < 8 µg/mL throughout.

For the compound `CCCCCCCCCCOc1ccc(F)c(C(N)=O)c1` [Example 71, 2-Fluoro-5-(decyloxy)benzenecarboxamide], the MIC (in the assay on Bacillus subtilis 168CA (Bacillus subtilis 168CA); in assay [1]) was < 8 µg/mL in each case.

Regarding `Cc1cc(COc2ccc(F)c(C(N)=O)c2F)ccc1F` [Example 147, 2,6-Difluoro-3-(4-fluoro-3-methyl-benzyloxy)-benzamide], the MIC (in the assay on Bacillus subtilis 168CA (Bacillus subtilis 168CA); in assay [1]) was 16 to 64 µg/mL (≈ 54.2 to 217 µM) throughout.

On to `NC(=O)c1c(F)ccc(OCc2nc(Cc3ccccc3)cs2)c1F` [Example 137, 3-(4-Benzyl-thiazol-2-ylmethoxy)-2,6-difluoro benzamide], for which the “Bacillus subtilis MICs Activity” value in the assay on Bacillus subtilis 168CA (Bacillus subtilis 168CA) was “B (‘B’ if the MIC was 16 to 64 micrograms/ml)”. In addition, the “Staphylococcus aureus MICs Activity” value in assay [1] is “B (‘B’ if the MIC was 16 to 64 micrograms/ml)”.

Regarding `Cl.NC(=O)c1c(F)ccc(OCc2nc(-c3ccc(N)cc3)no2)c1F` [Example 251, 3-[3-(4-Aminophenyl)-1,2,4-oxadiazol-5-yl]methoxy-2,6-difluorobenzenecarboxamide hydrochloride salt], the MIC (in the assay on Bacillus subtilis 168CA (Bacillus subtilis 168CA); in assay [1]) was 16 to 64 µg/mL each time.

Regarding `CC/C=C\CCCCCOc1ccc(F)c(C(N)=O)c1F` [Example 86, 2,6-Difluoro-3-[(Z)-6-nonenyloxy]benzenecarboxamide], the MIC (in the assay with Bacillus subtilis 168CA (Bacillus subtilis 168CA); in assay [1]) was < 8 µg/mL throughout.

For `NC(=O)c1cc(OCc2nc(-c3ccc(Cl)cc3)no2)ccc1F` [Example 268, 5-[3-(4-Chloro-phenyl)-[1,2,4]oxadiazol-5-ylmethoxy]-2-fluoro-benzamide], the values for the MIC (with Bacillus subtilis 168CA (Bacillus subtilis 168CA); in assay [1]) were < 8 µg/mL and 16 to 64 µg/mL (≈ 46 to 184 µM), respectively.

Consider `COC(=O)c1ccc2nc(COc3ccc(F)c(C(N)=O)c3F)sc2c1` [Example 321, 2-(3-Carbamoyl-2,4-difluoro-phenoxymethyl)-benzothiazole-6-carboxylic acid methyl ester], for which the MIC (in the assay with Bacillus subtilis 168CA (Bacillus subtilis 168CA); in assay [1]) was < 8 µg/mL throughout.

As for `NC(=O)c1c(F)ccc(OCc2nc3ccccc3o2)c1F` [Example 209, 3-(1,3-Benzoxazol-2-ylmethoxy)-2,6-difluorobenzenecarboxamide], the MIC in the assay with Bacillus subtilis 168CA (Bacillus subtilis 168CA) is 16 to 64 µg/mL (≈ 52.6 to 210 µM); in assay [1], > 64 µg/mL.

Regarding `NC(=O)c1c(F)ccc(OCc2nc3cc(Oc4ccccc4)ccc3s2)c1F` [Example 327, 2,6-Difluoro-3-(5-phenoxy-benzothiazol-2-ylmethoxy)-benzamide], the MIC (with Bacillus subtilis 168CA (Bacillus subtilis 168CA); in assay [1]) was < 8 µg/mL in each case.

Take `NC(=O)c1c(F)ccc(OCc2nc(-c3nccs3)no2)c1F` [Example 326, 2,6-Difluoro-3-(3-thiazol-2-yl-[1,2,4]oxadiazol-5-ylmethoxy)-benzamide]: the MIC (with Bacillus subtilis 168CA (Bacillus subtilis 168CA); in assay [1]) was 16 to 64 µg/mL (≈ 47.3 to 189 µM) throughout.

`NC(=O)c1c(F)ccc(OCc2csc(-c3ccc(O)cc3)n2)c1F` [Example 304, 2,6-Difluoro-3-[2-(4-hydroxy-phenyl)-thiazol-4-ylmethoxy]-benzamide]: the MIC (with Bacillus subtilis 168CA (Bacillus subtilis 168CA); in assay [1]) was < 8 µg/mL each time.

Regarding `COc1ccc(-c2nc(COc3ccc(F)c(C(N)=O)c3F)sc2Br)cc1` [Example 158, 3-[5-Bromo-4-(4-methoxy-phenyl)-thiazol-2-ylmethoxy]-2,6-difluoro-benzamide], the MIC (with Bacillus subtilis 168CA (Bacillus subtilis 168CA); in assay [1]) was < 8 µg/mL throughout.

Regarding `COc1ccc(Br)c(-c2csc(COc3ccc(F)c(C(N)=O)c3F)n2)c1` [Example 100, 3-[4-(2-Bromo-5-methoxy-phenyl)-thiazol-2-ylmethoxy]-2,6-difluoro-benzamide], the MIC (in the assay with Bacillus subtilis 168CA (Bacillus subtilis 168CA); in assay [1]) was < 8 µg/mL each time.

Take `COc1ccc(-c2nc(COc3ccc(F)c(C(N)=O)c3F)sc2-c2ccccc2N)cc1` [Example 283, 2,6-Difluoro-3-[5-(2-amino-phenyl)-4-(4-methoxy-phenyl)-thiazol-2-ylmethoxy]-benzamide]: the MIC (in the assay with Bacillus subtilis 168CA (Bacillus subtilis 168CA); in assay [1]) was < 8 µg/mL throughout.

As for `Cc1ccccc1-c1noc(COc2ccc(F)c(C(N)=O)c2F)n1` [Example 252, 2,6-Difluoro-3-[3-(2-methylphenyl)-1,2,4-oxadiazol-5-yl]methoxybenzenecarboxamide], the MIC (in the assay on Bacillus subtilis 168CA (Bacillus subtilis 168CA); in assay [1]) was < 8 µg/mL throughout.

For `CCCC(C)COc1cccc(C(N)=O)c1` (centres unmarked) [Example 39, 3-[(2-Methylpentyl)oxy]benzenecarboxamide], the MIC (with Bacillus subtilis 168CA (Bacillus subtilis 168CA); in assay [1]) was 16 to 64 µg/mL (≈ 72.3 to 289 µM) each time.

As to `NC(=O)c1c(F)ccc(OCc2nc3cc(Cl)ccc3o2)c1F` [Example 210, 3-[(5-Chloro-1,3-benzoxazol-2-yl)methoxy]-2,6-difluorobenzenecarboxamide], the MIC (in the assay with Bacillus subtilis 168CA (Bacillus subtilis 168CA); in assay [1]) was < 8 µg/mL each time.

`N#Cc1ccc(-c2nc(COc3ccc(F)c(C(N)=O)c3F)sc2Br)cc1` [Example 291, 3-[5-Bromo-4-(4-cyano-phenyl)-thiazol-2-ylmethoxy]-2,6-difluoro-benzamide]: the MIC (in the assay with Bacillus subtilis 168CA (Bacillus subtilis 168CA); in assay [1]) was < 8 µg/mL throughout.

Regarding `NC(=O)c1c(F)ccc(OCc2nc(-c3ccc(Cl)cc3)co2)c1F` [Example 309, 3-[4-(4-Chloro-phenyl)-oxazol-2-ylmethoxy]-2,6-difluoro-benzamide], the MIC (in the assay on Bacillus subtilis 168CA (Bacillus subtilis 168CA); in assay [1]) was < 8 µg/mL each time.

For `C/C=C/COc1cccc(C(N)=O)c1` [Example 30, 3-[2-Butenyloxy]benzenecarboxamide], the MIC (in the assay with Bacillus subtilis 168CA (Bacillus subtilis 168CA); in assay [1]) was > 64 µg/mL throughout.

With `NC(=O)c1c(Cl)ccc(OCc2nc(-c3ccc(Cl)cc3)cs2)c1F` [Example 273, 6-Chloro-3-[4-(4-chloro-phenyl)-thiazol-2-ylmethoxy]-2-fluoro-benzamide], the MIC (in the assay with Bacillus subtilis 168CA (Bacillus subtilis 168CA); in assay [1]) was < 8 µg/mL throughout.

On to `NC(=O)c1c(F)ccc(OCc2nc(Cc3ccc(Cl)cc3)no2)c1F` [Example 265, 3-[3-(4-Chlorobenzyl)-1,2,4-oxadiazol-5-yl]methoxy-2,6-difluorobenzenecarboxamide], for which the MIC was < 8 µg/mL with Bacillus subtilis 168CA (Bacillus subtilis 168CA) and 16 to 64 µg/mL (≈ 42.1 to 169 µM) in assay [1].

With `NC(=O)c1c(F)ccc(OCc2nc3c(Cl)cccc3s2)c1F` [Example 226, 3-[(4-Chloro-1,3-benzothiazol-2-yl)methoxy]-2,6-difluorobenzenecarboxamide], the MIC (in the assay with Bacillus subtilis 168CA (Bacillus subtilis 168CA); in assay [1]) was 16 to 64 µg/mL (≈ 45.1 to 180 µM) in each case.

Turning to `NC(=O)c1c(F)ccc(OCc2nc3cccc(Cl)c3s2)c1F` [Example 104, 2,6-Difluoro-3-(7-chloro-benzothiazol-2-ylmethoxy)-benzamide], the MIC (in the assay on Bacillus subtilis 168CA (Bacillus subtilis 168CA); in assay [1]) was < 8 µg/mL in each case.

In the case of `CCCCCCCCOc1cccc(C(N)=O)c1` [Example 19, 3-(Octyloxy)benzenecarboxamide], the MIC (with Bacillus subtilis 168CA (Bacillus subtilis 168CA); in assay [1]) was < 8 µg/mL each time.

Regarding `NC(=O)c1c(F)ccc(OCc2nc3cc(-c4ccccc4N)ccc3s2)c1F` [Example 141, 3-[5-(2-Amino-phenyl)-benzothiazol-2-ylmethoxy]-2,6-difluoro-benzamide], the MIC (with Bacillus subtilis 168CA (Bacillus subtilis 168CA); in assay [1]) was < 8 µg/mL in each case.

With `CCCCCCCCCOc1ccc(F)c(C(N)=O)c1` [Example 70, 2-Fluoro-5-(nonyloxy)benzenecarboxamide], the MIC (with Bacillus subtilis 168CA (Bacillus subtilis 168CA); in assay [1]) was < 8 µg/mL in each case.

Regarding `COc1ccc(-c2nc(COc3ccc(F)c(C(N)=O)c3F)c(C)o2)cc1` [Example 296, 2,6-Difluoro-3-[2-(4-methoxy-phenyl)-5-methyl-oxazol-4-ylmethoxy]-benzamide], the MIC (with Bacillus subtilis 168CA (Bacillus subtilis 168CA); in assay [1]) was < 8 µg/mL in each case.

Take `COc1ccc(-c2nc(COc3ccc(F)c(C(N)=O)c3F)sc2-c2cscn2)cc1` [Example 288, 2,6-Difluoro-3-[4′-(4-methoxy-phenyl)-[4,5′]bithiazolyl-2′-ylmethoxy]-benzamide]: the MIC (with Bacillus subtilis 168CA (Bacillus subtilis 168CA); in assay [1]) was < 8 µg/mL throughout.

On to `NC(=O)c1c(F)ccc(OCc2nc(-c3ccccc3)no2)c1F` [Example 240, 2,6-Difluoro-3-[(3-phenyl-1,2,4-oxadiazol-5-yl)methoxy]benzenecarboxamide], for which the MIC (with Bacillus subtilis 168CA (Bacillus subtilis 168CA); in assay [1]) was < 8 µg/mL in each case.

Take `CC(=O)Oc1cccc(COc2cccc(C(N)=O)c2)c1` [Example 172, 3-[3-(Aminocarbonyl)phenoxy]methylphenyl acetate]: the MIC (in the assay with Bacillus subtilis 168CA (Bacillus subtilis 168CA); in assay [1]) was > 64 µg/mL each time.

Turning to `NC(=O)c1c(F)ccc(OCc2nc(-c3c(Cl)cccc3Cl)no2)c1F` [Example 260, 3-[3-(2,6-Dichlorophenyl)-1,2,4-oxadiazol-5-yl]methoxy-2,6-difluorobenzenecarboxamide], the MIC (in the assay on Bacillus subtilis 168CA (Bacillus subtilis 168CA); in assay [1]) was < 8 µg/mL each time.

On to `NC(=O)c1c(F)ccc(OCc2nc3cc(C4=CCCC4)ccc3s2)c1F` [Example 316], for which the MIC is < 8 µg/mL in the assay on Bacillus subtilis 168CA (Bacillus subtilis, 168CA) and < 8 µg/mL in assay [1].

For the origin of these results see US8088791B2, “Antibacterial agents” (Biots Scientific Management Pty Ltd, priority 2006, dated 2012).
